{"source": "patent US12485182B2", "about": "“Proteoglycan mimetics for enhanced wound healing, angiogenesis, and vascular repair” (The Regents of the University of California, priority 2018, dated 2025)", "key": {"[1]": {"system": "collagen", "test": "DS-SILY binding to collagen"}, "[2]": {"system": "denuded arteries", "test": "Ossabaw pig angioplasty model, platelet deposition (acute)", "type": "in vivo", "conditions": "vs saline", "experimental": "(§1) An In vivo Ossabaw pig angioplasty model was used to assess platelet deposition (acute) and neointimal hyperplasia (1-month recovery) with DS-SILY treatment. Porous angioplasty balloons were employed for delivery of soluble DS-SILY to the target arteries in the peripheral vasculature of pigs. Renal, femoral, and iliac arteries were denuded by balloon expansion, followed by delivery through the porous balloon. Arteries were treated with and without the use of a bare metal stent and the healing response was assessed for neointimal hyperplasia.\nArteries for assessing the acute response of balloon injury were harvested within hours of angioplasty. The arteries were rinsed with saline and fixed in 10% formalin overnight, and prepared for SEM visualization. […] High magnification images in FIG. 31 show numerous projections and spreading of platelets on sham control arteries, indicative of platelet activation."}, "[3]": {"system": "SMCs", "test": "DS-SILY effects on SMCs", "type": "cell-based"}, "[4]": {"system": "EC", "test": "EC migration on collagen surfaces", "type": "cell-based"}, "[5]": {"system": "platelets (platelet-rich plasma)", "test": "Platelet binding under flow on collagen-coated microchannels", "type": "cell-based", "conditions": "PRP, shear rate 750 s^−1, 4 minutes", "experimental": "Flow kits from Ibidi (Martinsried, Germany) were used to measure […] recruitment under flow conditions. Microchannels were coated with equine fibrillar type I collagen (Chronolog, Havertown, PA) diluted in 0.85% sodium chloride and incubated for one hour at room temperature. Unbound collagen was removed by rinsing three time with 1×PBS. The treatment molecule (DS-SILY, LXW7-DS-SILY, or LXW7-(SILY)2) was incubated in the channel for 30 minutes at room temperature, and unbound peptidoglycan was rinsed with 1× PBS.\nNext, 15 mL of blood was drawn into sodium citrate vacutainers by venipuncture and centrifuged for 20 minutes at 200 Gs and 37° C. and the top layer of platelet-rich plasma (PRP) was collected. A syringe pump was used to flow PRP through microchannels at 4.2 mL/hr for a shear rate of 750 s^−1. After 4 minutes, the channels were rinsed with 100 μL, PBS to remove unbound cells. Adherent cells were stained with 10 μM CellTracker Green (ThermoFisher Scientific) in media for 30 minutes at 37° C. Channels were rinsed with 1× PBS and total fluorescence and cell number in the channels were quantified using ImageJ (NIH, Bethesda, MD)."}, "[6]": {"system": "denuded arteries", "test": "Ossabaw pig angioplasty model, neointimal hyperplasia (1-month recovery)", "type": "in vivo", "conditions": "with and without stents, vs sham", "experimental": "as §1, with “hyperplasia. Neointimal hyperplasia was assessed by histology after 1-month recovery by measuring the distance between the internal elastic lamina and the lumen, or between a stent post and the lumen (FIG. 32).” for “hyperplasia.”"}, "[7]": {"system": "platelets", "test": "Platelet binding and activation on a collagen surface in vitro", "type": "cell-based"}, "[8]": {"system": "chick chorioallantoic membrane", "test": "Ex ovo CAM assay, treatments eluting from collagen gels", "type": "in vivo", "conditions": "after 24 hours", "experimental": "Fertilized Hyline eggs obtained from the Avian Facility at UC Davis were incubated at 37° C. for 72 hours with 6 rotations per day at 80% humidity in a Grumbach egg incubator. On day 3, eggs were cracked open into disinfected weighboats (VWR) and covered with lids from square petri dishes (Fisher), and the embryos developed over a week in the incubator. On day 10, treatments encapsulated in collagen I gels were gently placed on the developing CAM. For experiments involving treatments freely eluting from the collagen gels, 100 μL of gel was polymerized in a 10-mm diameter rubber mold against a sterilized glass slide, and 1 treatment gel and 1 control gel was placed per CAM. The number of vessels in a 2-mm radius immediately surrounding the gel was manually counted in imageJ immediately after placement and 24 hours later to determine changes surrounding vessels. The change in vessels over 24 hours for treatment gels were normalized to the respective change in the control gel on the same developing embryo."}, "[9]": {"system": "HMVEC monolayer", "test": "Endothelial monolayer permeability (transwell, RITC-dextran)", "type": "cell-based, human", "conditions": "by 72 hours", "experimental": "The following day, an additional 50,000 cells were seeded to each insert and allowed to grow for another 24 hours. Media was then removed and replaced with 0.5 mL media to the bottom well and 0.1 mL of treatment media to the insert for 10 minutes. Treatment was removed and 0.3 mL of 1 mg/mL RITC-dextran in media was then added to each transwell insert and allowed to permeate for 30 minutes. Sample permeate was then assayed on a SpectraMax M5 plate reader for fluorescence (excitation: 570 nm; emission: 590 nm). RITC-dextran solutions and sample permeates were then aspirated and replaced with another 0.1 mL of treatment media in the transwell insert and 0.5 mL media in the bottom chamber. This procedure was repeated daily over 4 days. Treatments were also compared to inserts with cells removed by rubbing away with a pipette tip to determine the barrier efficacy of the monolayer and the degree of increased permeability."}, "[10]": {"system": "ischemic wounds", "conditions": "exogenous VEGF; cited from earlier work"}, "[11]": {"system": "ECs", "test": "Proliferation of ECs on LXW7-treated surfaces (MTS assay)", "type": "cell-based", "conditions": "surface-grafted LXW7 vs D-biotin control", "text": "(§2) FIG. 34. Effects of LXW7 on EC biological functions. (A) Proliferation of ECs on LXW7-treated surfaces and D-biotin treated surface (control) assessed by MTS assay. Data were expressed as mean±standard deviation: **p<0.01, ***p<0.001 (n=4). (B) Western-blot analysis of the effect of LXW7 on phosphorylation of VEGFR2 (Tyr1175) and phosphorylation of ERK1/2 (left panels) and quantified by densitometry (right panels). Data were expressed as mean±standard deviation: *p<0.05, **p<0.01 (n=4).\n(§3) To test the ability of LXW7 to promote endothelialization, we evaluated polymer-based small diameter vascular grafts (ID 1 mm) functionalized with LXW7 via Click chemistry in a rat carotid artery bypass model (FIG. 35). […] After 6 weeks post implantation, 5 out of 6 LXW7-modified grafts were patent versus only 1 out of 6 control grafts was patent (FIG. 35). […] This confirms that LXW7 coating on the luminal surface of synthetic vascular grafts can generate a “living” endothelium."}, "[12]": {"system": "platelets", "test": "LXW7 binding to platelets", "type": "cell-based", "experimental": "(§4) Using primary artery-derived ECs and blood-derived EPCs as living probes to screen One-Bead-One-Compound (OBOC) combinatorial peptide libraries, several high-affinity binding ligands against the αvβ3 integrin on the surface of EPCs/ECs were identified. […] The LXW7 peptide, when grafted to surfaces, supports adhesion and spreading of EPCs and human coronary ECs, but not platelets or monocytes. Culture plates, 24-well, were coated with 500 μL of 20 μg/mL Avidin for 1 hour at 37° C. followed by washing with PBS and coating with either 500 μL molar equivalents of D-biotin, LXW7-biotin, or GRGD (SEQ ID NO: 2)-biotin. After washing with PBS and blocking with 1% BSA wells were ready for cell attachment with 5×10^4 HCAECs or THP-1 monocytes suspended in the respective maintenance medium, or freshly isolated platelets at a density of 5×10^7 platelets/cm^2 incubated for 16 h at 37° C., 5% CO2. The cells were washed with PBS, and fixed in 10% formalin for 20 min. For evaluation of HCAEC, the cells were blocked with 1% BSA and incubated overnight with mouse anti-CD31 antibody (1:100; Abcam) in 1% BSA at 4° C., followed by probing with goat anti-mouse Alexa Fluor 594 conjugate in 1% BSA. Nuclei were stained with DAPI. Images were captured using an Olympus IX81 microscope. […] Quantification of images was performed using the Image J software (NIH)."}, "[13]": {"system": "THP-1 monocytes", "test": "LXW7 binding to THP-1 monocytes", "type": "cell-based", "experimental": "as §4"}, "[14]": {"system": "primary EPCs/ECs", "test": "LXW7 binding to primary EPCs/ECs", "type": "cell-based", "experimental": "as §4"}, "[15]": {"system": "VEGFR2", "test": "Western-blot, phosphorylation of VEGFR2 (Tyr1175)", "type": "cell-based", "conditions": "surface-grafted LXW7", "text": "as §2, §3"}, "[16]": {"system": "platelets", "test": "Attachment of platelets to peptide-treated surfaces", "type": "cell-based", "conditions": "biotin-peptide on Avidin-coated wells", "text": "(§5) FIG. 33. Attachment of cells and platelets to LXW7 and GRGD (SEQ ID NO: 2) treated surfaces. (A) Images of attached HCAECs (left panels), THP-1 monocytes (middle panels) and platelets (right panels) on surfaces treated by D-Biotin (a-c) (control), LXW7 (d-f) or GRGD (SEQ ID NO: 2) (g-i). Scale bars in a, b, d, e, g and h are 50 μm. Scale bars in c, f and i are 20 μm. (B) The number of cells or platelets attached on different treated surfaces were quantified and statistical analyses were performed. Data were expressed as mean±standard deviation: **p<0.01 (n=4).\n(§6) Using primary artery-derived ECs and blood-derived EPCs as living probes to screen One-Bead-One-Compound (OBOC) combinatorial peptide libraries, several high-affinity binding ligands against the αvβ3 integrin on the surface of EPCs/ECs were identified. […] The LXW7 peptide, when grafted to surfaces, supports adhesion and spreading of EPCs and human coronary ECs, but not platelets or monocytes. […] After washing with PBS and blocking with 1% BSA wells were ready for cell attachment with 5×10^4 HCAECs or THP-1 monocytes suspended in the respective maintenance medium, or freshly isolated platelets at a density of 5×10^7 platelets/cm^2 incubated for 16 h at 37° C., 5% CO2. […] Quantification of images was performed using the Image J software (NIH)."}, "[17]": {"system": "THP-1 monocytes", "test": "Attachment of THP-1 monocytes to peptide-treated surfaces", "type": "cell-based", "conditions": "biotin-peptide on Avidin-coated wells", "text": "as §5, §6"}, "[18]": {"system": "HCAECs", "test": "Attachment of HCAECs to peptide-treated surfaces", "type": "cell-based, human", "conditions": "biotin-peptide on Avidin-coated wells", "text": "as §5, §6"}, "[19]": {"system": "ERK1/2", "test": "Western-blot, phosphorylation of ERK1/2", "type": "cell-based", "conditions": "surface-grafted LXW7", "text": "as §2, §3"}}, "note": "Entries after “also recorded” stand apart in the source; their conditions may differ. Positions of bridges follow the written chain, without caps; N, C: chain ends. Non-standard residues stand in square brackets, D forms with d. No end group written: not given here."}
{"substance": "DS-SILY: antithrombotic proteoglycan mimetic; dermatan sulfate with collagen-binding SILY peptides (RRANAALKAGELYKSILYGSG; not fully specified; also: conjugated to dermatan sulfate backbone, attachment not given here)", "values": [{"measurement": "binding to collagen", "setting": "[1]", "value": "high affinity"}, {"measurement": "platelet activation (morphology) on denuded artery", "setting": "[2]; SEM", "value": "remained largely rounded"}, {"measurement": "platelet binding on denuded artery", "setting": "[2]; delivery through porous balloon after balloon angioplasty", "value": "platelets are scarcely found on the denuded artery; also recorded: almost completely inhibited platelet binding"}, {"measurement": "SMC migration and proliferation", "setting": "[3]", "value": "suppresses SMC migration and proliferation"}, {"measurement": "inflammatory cytokine production", "setting": "[3]", "value": "suppresses inflammatory cytokine production"}, {"measurement": "protein production by SMCs", "setting": "[3]", "value": "suppresses, but does not eliminate protein production by SMCs"}, {"measurement": "promotion of EC migration compared to control collagen surfaces", "setting": "[4]", "value": "up to 32%"}, {"measurement": "platelet binding under flow", "setting": "[5]", "value": "low platelet binding"}, {"measurement": "neointimal hyperplasia", "setting": "[6]", "value": "minimal intimal hyperplasia is observed"}, {"measurement": "inhibition of platelet binding and activation on a collagen surface", "setting": "[7]", "value": "~90", "unit": "%"}]}
{"substance": "VEGF", "values": [{"measurement": "vasculogenic activity", "setting": "[8]; 2 μg/mL", "value": "comparable vasculogenic activity"}, {"measurement": "monolayer permeability vs untreated controls", "setting": "[9]", "value": "significantly different from untreated controls"}, {"measurement": "increase in granulation tissue formation", "setting": "[10]", "value": "up to 150%"}]}
{"substance": "cyclic cGRGDdvc ([dC]GRGD[dD][dV][dC]; disulfide 1-8 (inferred)) [LXW7, cyclic octapeptide ligand against the αvβ3 integrin]", "values": [{"measurement": "cell proliferation", "setting": "[11]", "value": "stimulated cell proliferation"}, {"measurement": "binding to platelets", "setting": "[12]", "value": "weakly"}, {"measurement": "binding to THP-1 monocytes", "setting": "[13]", "value": "does not bind"}, {"measurement": "binding to primary EPCs/ECs", "setting": "[14]", "value": "bind strongly"}, {"measurement": "phosphorylation of VEGF2 receptor", "setting": "[15]", "value": "stimulated"}, {"measurement": "surrounding vessel growth", "setting": "[8]; 100 μM eluted from collagen gels", "value": "either decreased or caused no changes in surrounding vessel growth"}, {"measurement": "platelet binding to treated surface", "setting": "[16]", "value": "not monocyte or platelet binding"}, {"measurement": "monocyte binding to treated surface", "setting": "[17]", "value": "not monocyte or platelet binding"}, {"measurement": "HCAEC binding to treated surface", "setting": "[18]", "value": "supported robust HCAEC binding"}, {"measurement": "phosphorylation of ERK ½", "setting": "[19]", "value": "stimulated"}]}
